{"source": "patent US20240342121A1", "about": "“THE USE OF BETA-HYDROXYBUTYRATES FOR THE TREATMENT OR PREVENTION OF ANEURYSMS AND DISSECTIONS” (priority 2021, published 2024)", "key": {"[1]": {"system": "angiotensin II (AII)-induced AAA", "test": "AII-induced AAA mouse model, post-treatment", "type": "in vivo", "text": "To determine if senescence is a major cause of aneurysm development, the association between senescence and aneurysms using the angiotensin II (AII)-induced AAA model was investigated. Mice were infused AII for four weeks using osmotic mini-pump implantation into Apoe^−/− transgenic mouse.\nTo investigate the therapeutic potential of ketotherapy for abdominal aortic aneurysm (AAA), Ketogenic-diet (KD) and Ketone-ester (KE) were provided to angiotensin II (AII)-induced mouse model of AAA (FIG. 6). […] After completing AII infusion, the mice were post-treated with KD and KE for two to four weeks.\nTo investigate the time-dependent reduction of aorta diameter, the inner diameter of the aorta using ultrasound analysis was measured."}, "senescent SMCs": {"system": "senescent SMCs", "test": "Flow cytometry (FACS) apoptosis analysis, PI and Annexin V", "type": "cell-based", "settings": "FIGS. 2B, 2C", "procedure": "(§1) FIGS. 2A-2L. (a) Cytotoxicity assay of normal smooth muscle cells (NS) and senescent smooth muscle cells (SMCs). Replicative senescent SMCs (RS) and premature senescent SMCs, stimulated by H2O2 (HP), arsenic (Ars), and Nutlin 3a (Nut) treatment were treated with βHB, s-βHB, and ABT-737. (b) Flow cytometry analysis of apoptosis by βHB or s-βHB in radiation (10 Gy)-induced senescent SMC. (c) Quantitation of apoptotic cell and senescent cell after treating βHB and s-βHB in radiation-induced senescent SMC. (d) Representative aorta image of AII-infused mice with post-treatment of ABT-737, βHB and s-βHB. (e) External diameter of abdominal aorta infused with AII and post-treated with ABT-737 βHB and s-βHB. (f) SA-βGal activity assay of the whole aorta infused with AII, and post-treated with ABT-737, KD, or KE. (g) Quantitation of senescent area on aorta of AII-infused mice, and post-treated with KD, KE and ABT-737. (h) TUNEL assay on the abdominal aorta of AII infused mice, and treated with ABT-737, βHB, or s-βHB. SM-α Actin (SMA) and DAPI are co-stained after TUNEL reaction. (i) Caspase 3 activity assay on normal SMCs (NC) treated with βHB, or s-βHB, and ABT-737 comparing to normal cells pretreated with Nutlin-3a. (j) Caspase 3 activity assay on senescent SMCs (SNC) treated with βHB, or s-βHB, and ABT-737 compared to senescent cells pretreated with pifithrin-α. […]"}, "[2]": {"system": "angiotensin II (AII)-induced AAA", "test": "AII-induced AAA mouse model, post-treatment", "type": "in vivo", "settings": "injection every other day for two weeks, FIG. 2E"}, "[3]": {"system": "Oct4 overexpressed senescent SMCs", "test": "Oct4 overexpressed senescent SMCs (SA β-Gal, Western blot)", "type": "cell-based", "text": "FIGS. 14A-14B show (a) SA β-Gal activity on Oct4 overexpressed SMCs with or without βHB treatment (2 days). Irradiated SMCs were infected by Lentivirus containing Crispr-dCas9-VP64_Oct4 plasmid prior to treating βHB. The arrow indicates localized senescent cell mass. (b) Western blot analysis after lentivirus (Crispr-dCas9-VP64_Oct4) infection into senescent SMCs without βHB treatment for 1 day or 2 days.\nWe proposed that Oct4 upregulation in senescence forms senescent spheroid-like cell mass and asymmetric configuration of aneurysms. To validate our central hypothesis, we overexpressed Oct4 in senescent SMCs using the CRISPR-dCas9-VP64 system to determine the role of Oct4. […] Localized increase of senescence may be highly associated with asymmetric dilation of aneurysms. […] We supposed that βHB prevents or reverses Oct4-induced senescence of SMCs, consequently reducing the size of aneurysms. To investigate the role of βHB in aneurysms, we assess the possibility of cellular reprogramming in senescent SMCs in the condition of Oct4 overexpression. […] In particular, a moderate increase of FAP (Fibroblast Activation Protein) provides a potential for reprogramming resulting in transdifferentiation of SMCs to myofibroblast. Recovered SM22 expression in Oct4 overexpressed senescent SMCs supposed that βHB converts the Oct4 function in dedifferentiation into a reprogramming-related role. We considered an βHB-induced epigenetic alteration of senescent cells contributing to Oct4-dependent cellular reprogramming based on this unique observation."}, "senescent SMCs (SNC)": {"system": "senescent SMCs (SNC)", "test": "Caspase 3 activity assay on senescent SMCs", "type": "cell-based", "settings": "p53 inhibition by pifithirin-α, FIG. 2J", "procedure": "as §1"}}, "note": "Entries after “also recorded” stand apart in the source; their conditions may differ.", "data": [{"smiles": "C[C@@H](O)CC(=O)O", "note": "[βHB, (R)-3-Hydroxybutyrate]", "values": [{"measurement": "TUNEL assay, apoptosis of senescent plaque in the aneurysm", "setting": "[1]; FIG. 2H", "value": "induced targeted apoptosis of senescent plaque"}, {"measurement": "abdominal aorta stiffness, Pulse Wave Velocity (PWV)", "setting": "[1]; FIG. 3H, FIG. 18A", "value": "ameliorated vascular stiffness; also recorded: reversed aneurysm-associated aortic stiffness"}, {"measurement": "KβHB modified protein in abdominal aorta", "setting": "[1]; in vivo, immunofluorescent staining, FIG. 15B", "value": "increases KβHB modified protein in nuclear"}, {"measurement": "AAA rate after post-treating", "setting": "[1]; incidence of AAA by angiotensin II infusion 67%, n=10, FIG. 9D", "value": 47, "unit": "%"}, {"measurement": "AAA on whole aorta images", "setting": "[1]; injected every other day for two weeks, FIG. 2D", "value": "successfully rescued"}, {"measurement": "myofibroblast, SM α-Actin and FSP co-staining in aortic wall", "setting": "[1]; post-treatment, FIGS. 17A-17B", "value": "increases"}, {"measurement": "apoptosis of senescent SMCs", "setting": "senescent SMCs", "value": "induced targeted apoptosis of senescent SMCs"}, {"measurement": "external diameter of the abdominal aorta", "setting": "[2]", "value": "significantly reduced"}, {"measurement": "SM22 and β-galactosidase in Oct4 overexpressed-senescent cells", "setting": "[3]; Oct4 overexpressed, FIG. 14B", "value": "recovers SMC maturation marker (SM22) and reduced senescence marker (β-galactosidase)"}, {"measurement": "localized senescence, SA β-Gal activity", "setting": "[3]; Oct4 overexpression by CRISPR-dCas9-VP64, FIG. 14A", "value": "significantly reverses or prevents the development of localized senescence"}, {"measurement": "SM22 in senescent SMCs without Oct4 activation", "setting": "[3]; without Oct4 activation, FIG. 14B", "value": "does not recover SM22"}, {"measurement": "apoptosis with p53 inhibition", "setting": "senescent SMCs (SNC)", "value": "did not induce apoptosis"}]}]}
